Data from the NIST ThermoML archive (doi:10.1016/j.fluid.2018.05.028).

Assay: xn = mol fraction of the nth substance listed
Conditions: 101 kPa, Liquid; for mass density: Vibrating tube method; for viscosity: Concentric cylinders viscometry; for speed of sound: Single path-length method

CCCCCCCCCCCCCCCC [hexadecane] + CCCO
Conditions	mass density, 303.15 K [kg/m3]	mass density, 308.15 K [kg/m3]	mass density, 313.15 K [kg/m3]	speed of sound, 308.15 K [m/s]	speed of sound, 313.15 K [m/s]	speed of sound, 318.15 K [m/s]	viscosity, 308.15 K [mPa·s]	viscosity, 313.15 K [mPa·s]	viscosity, 318.15 K [mPa·s]
x2 = 0	–	762.95	759.49	1301.3	1283.1	1265	2.432	2.199	1.996
x2 = 0.1	–	762.83	759.29	1292.8	1274.3	1256	2.288	2.067	1.874
x2 = 0.2	766.87	763.27	759.67	1285.6	1267.1	1248.7	2.201	1.989	1.8
x2 = 0.3	767.62	763.98	760.33	1278.2	1259.6	1241.2	2.13	1.925	1.743
x2 = 0.4	768.67	764.98	761.29	1270.1	1251.5	1233	2.073	1.871	1.69
x2 = 0.5	770.09	766.36	762.61	1261	1242.4	–	2.01	1.812	1.634
x2 = 0.6	772.04	768.26	764.45	1250.2	1231.7	–	1.952	1.756	1.58
x2 = 0.7	774.73	770.89	767.03	1237.6	1219.3	–	1.88	1.691	1.519
x2 = 0.8	778.64	774.74	770.82	1221.1	1203.1	–	1.795	1.614	1.448
x2 = 0.9	784.59	780.63	776.63	1199.5	1182	–	1.687	1.515	1.357
